How the values were obtained:
[1] = test system: Akt/FoxO3a/Bim signaling pathway in CCRF-CEM cells; assay: Western blot of Akt/FoxO3a/Bim signaling pathway proteins in CCRF-CEM cells; format: cell-based, human; conditions: CCRF-CEM; inhibitors 0.8 μM; FIG. 5A
Description: The control group was not added with any reagents. All experiments were performed in triplicate.
Protein detection by Western blot: in the examples of the present invention, Akt antibody (rabbit derived), phosphorylated Akt antibody (rabbit derived), FoxO3a antibody (rabbit derived), phosphorylated FoxO3a antibody (rabbit derived) and GAPDH antibody (rabbit derived) and secondary antibodies were all purchased from CST company. The cells were collected in a centrifuge tube and centrifuged at 1000 rpm, the supernatant was discarded and the cells were washed twice with PBS pre-cold at 4° C.; cell lysis buffer (150 mM NaCl, 1% NP-40, 0.1% SDS, 2 μg/ml Aprotinin, 2 μg/ml Leupeptin, 1 mM PMSF, 1.5 mM EDTA, 1 mM sodium vanadate) was added and the cells were lysed on ice for 40 minutes, the cell lysate was centrifuged at 20000 rpm, 4° C. for 15 minutes, and the supernatant was collected; a protein loading buffer for sodium dodecyl sulfate polyacrylamide (SDS-PAGE) gel electrophoresis (1.25 mL 1MTris-HCl (pH6.8), 0.5 g SDS, 25 mg BPB, 2.5 mL glycerol, 5 mL deionized water) was added, followed by boiling for 5 minutes to denature proteins; the loading buffer containing denatured proteins was applied to 10% SDS-PAGE for electrophoresis at 120 V, and then transferred to a PVDF membrane (Sangon Biotech (Shanghai) Co., Ltd.) at 130 V for 1.5 hours; after the membrane transfer was completed, the PVDF membrane was immediately rinsed with a Western washing solution (150 mmol/L NaCl, 50 mmol/L Tris-HCl (pH 7.5)) for 1-2 minutes; added with 5% non-fat milk powder (Shanghai Biotechnology Co., Ltd.), agitated gently and then blocked at room temperature for 60 minutes; a primary antibody diluted appropriately with 5% non-fat milk powder was added, and incubated overnight at room temperature with gentle agitating; the primary antibody was recovered and the membrane was washed three times with the washing solution for 5-10 minutes each; a horseradish peroxidase-labeled secondary antibody diluted appropriately with the Western washing solution was added, and incubated at room temperature for 1 hour with gentle agitating; the secondary antibody was recovered and the membrane was washed three times with the Western washing solution for 5-10 minutes each. An appropriate amount of developing solution (DAB 4 mg, 30% hydrogen peroxide 15 μL, 0.01 M Tris-Cl (pH 7.5) 5 mL) was dropped on the PVDF membrane, the image was detected using a bioluminescence image colorimeter and a gel imaging system (Thermo company), and the quantitative analysis of bands was performed using Image Lab software.
(§1) The cells were cultured in RPMI 1640 complete medium (Gibco company) containing 10% fetal bovine serum (FBS, Gibco company) in an incubator (Thermo company) at 5% CO2 and 37° C. until reaching logarithmic growth phase, then different concentrations of inhibitors and/or dexamethasone/ethanol/DMSO were added to the culture medium, followed by further culturing (for addition of dexamethasone/ethanol/DMSO, for 48 hours, and for addition of inhibitor, for 24 hours), and apoptosis was detected by Annexin V-FITC PI double staining and proteins were detected by Western blot, as described in Example 1.
Methods: CCRF-CEM cells were cultured in RPMI 1640 complete medium (Gibco company) containing 10% fetal bovine serum (FBS, Gibco company) in an incubator (Thermo company) at 5% CO2 and 37° C. until reaching logarithmic growth phase, then DMSO, dexamethasone and different inhibitors (DMSO: 0.1%, dexamethasone: 0.1 μM, inhibitors: 0.8 μM) were added to the culture medium, and further cultured (for addition of dexamethasone or DMSO, for 48 hours, and for addition of inhibitors, for 24 hours), and the proteins were detected by Western blot, as described in Example 1.

Daudi cells [2] = assay: Apoptosis by Annexin V-FITC PI double staining, Daudi; format: cell-based, human; conditions: compared to the dexamethasone group; FIG. 2K, 4L
Description: (§2) Apoptosis was detected by Annexin V-FITC PI double staining method (flow cytometry kit (FITC, PI double staining), Sangon Biotech (Shanghai) Co., Ltd.)), and the collected cells were washed once with phosphate buffered saline (PBS) (135 mM NaCl, 2.7 mM KCl, 1.5 mM KH2PO4 and 8 mM K2HPO4, pH 7.2); the 4× binding buffer was diluted to a 1× binding buffer with deionized water, then the cells were resuspended with 195 ul of the 1× binding buffer at a cell density of 2-5×10^5/ml; 5 μl of Annexin V-FITC was added to the 195 μl of the cell resuspension and mixed, and incubated in dark at room temperature for 10 minutes; the cells were washed once with 200 μl of the 1× binding buffer, and then resuspended in 190 μl of the 1× binding buffer; 10 μl of propidium iodide (20 μg/ml) was added. A flow cytometry device (Beckman company) was used for detection, and the rate of apoptosis was analyzed using Summit software.
as §1, with “1. […]” for “1.”

Daudi cells [3] = assay: Cell viability by CCK-8 and combination index, Daudi; format: cell-based, human
Description: (§3) As described in Example 3, the cells were cultured in RPMI 1640 complete medium containing 10% fetal bovine serum under 5% CO2 and 37° C. until reaching logarithmic growth phase, and then dexamethasone and different concentrations of Akt inhibitor were added to the culture medium, followed by further culture (for addition of dexamethasone/DMSO, for 48 hours, and for addition of the inhibitor, for 24 hours), the apoptosis was detected by Annexin V-FITC PI double staining method and proteins were detected by Western blot as described in Example 1 as well as the cell viability was detected by CCK-8 method.
The inhibitory effect of two drugs (dexamethasone and an inhibitor) alone and in combination on various lymphocyte lines was observed by CCK-8 method (CCK-8 kit), and then the half-inhibitory concentration of each drug was calculated using the median effect equation, and the combination index (CI) of the two drugs used in combination was calculated using CompuSyn software.
(1) the lymphocytes of logarithmic growth phase were taken and made to a cell suspension of 5×10^4/mL, a blank control group (5 wells), a dexamethasone group (3 wells for each concentration, triplicates), a single inhibitor group (3 wells for each concentration, triplicates), a dexamethasone plus inhibitor group (3 wells for each combined concentration, triplicates) were prepared, 180 μL of the suspension was seeded to each well of a 96-well plate, and incubated for 24 hours in an incubator at 5% CO2 and 37° C.
Based on the drug resistance of cells, the ratio of two drugs was fixed. The dexamethasone group was cultured for 48 hours while the inhibitor group was cultured for 24 hours.
(3) 10 μl of CCK-8 was added to each well, and cultured for 2 hours, and the optical density (OD) was measured at 450 nm using an automatic microplate reader, and the proliferation inhibition rate of the drug on cell was calculated.
(4) the proliferation inhibition rate was calculated according to the following equation: cell proliferation inhibition rate=(1-average OD value in the test group/average OD value in the control group)×100%, and the effect of interaction between the two drugs was analyzed by Chou-Talalay combination index method.

[4] = test system: L-02 human-derived healthy liver cell line; assay: CCK-8 viability of healthy liver cells L-02; conditions: FIG. 6A; for damage to liver cells: DEX 0.1 μM, inhibitors 0.8 μM
[5] = test system: L-02 human-derived healthy liver cell line
Jurkat cells [6] = assay: Apoptosis by Annexin V-FITC PI double staining, Jurkat; format: cell-based, human; conditions: compared to the only/single dexamethasone group; FIG. 2F, 4J
Description: as §2, §1, §3
The transfected cells were selected and passaged for 3 to 5 passages after resuscitation, with Interferin™ as transfection reagent, and the transfection procedure was performed in accordance with the instruction of the transfection reagent. In short, the cells of logarithmic growth phase were plated at 2×10^5/well, the cells were replaced with fresh complete medium (free of antibiotics) during transfection, siRNA was diluted with Opti-MEM and added with an appropriate amount of […]in™ and mixed, incubated at room temperature for 10 minutes prior to being added dropwise to the cells, and the cells were harvested at appropriate time. The cells were transfected with green fluorescein-labeled siRNA (FAM-siRNA) (siRNA at a final concentration of 20 μM, 1.25 μl/well), and the transfection efficiency was observed using a fluorescence microscope 24 hours later. The dexamethasone group was added 24 hours after transfection, followed by culture for further 24 hours, and then the cells were collected for observation; and the equal amount of anhydrous ethanol was added to the control group.

[7] = Toxicity in tumor-bearing nude mice (peripheral blood test, organ pathology)
Jurkat cells [8] = assay: Cell viability by CCK-8 and combination index, Jurkat; format: cell-based; conditions: Homo sapiens, dexamethasone alone (original), read-out: concentration of dexamethasone at which 50% viability of Jurkat cells (IC50 value) was inhibited
Description: as §3
(§4) The inhibitory effect of two drugs (dexamethasone and an inhibitor) alone and in combination on various lymphocyte lines was observed by CCK-8 method (CCK-8 kit), and then the half-inhibitory concentration of each drug was calculated using the median effect equation, and the combination index (CI) of the two drugs used in combination was calculated using CompuSyn software. […]
(§5) (3) 10 μl of CCK-8 was added to each well, and cultured for 2 hours, and the optical density (OD) was measured at 450 nm using an automatic microplate reader, and the proliferation inhibition rate of the drug on cell was calculated. […]

CCRF-CEM cells = assay: Cell viability by CCK-8 and combination index, CCRF-CEM; format: cell-based; conditions: Homo sapiens, dexamethasone alone (original), read-out: concentration of dexamethasone at which 50% viability of CCRF-CEM cells (IC50 value) was inhibited
Description: as §3, §4, §5

CEM-DR cells = assay: Cell viability by CCK-8 and combination index, CEM-DR; format: cell-based; conditions: Homo sapiens; dexamethasone alone (original); read-out: concentration of dexamethasone at which 50% viability of CEM-DR cells (IC50 value) was inhibited
Description: as §3, §4, §5

In the case of O=c1[nH]c2ccccc2n1C1CCN(Cc2ccc(-c3nc4cc5nc[nH]c5cc4nc3-c3ccccc3)cc2)CC1 [Akti-1/2], the “expression of p-Akt1” value [1] is reported as “reduced”, the “expression of p-Akt2” value [1] is reported as “reduced” and the “apoptosis of Daudi cells, inhibitor in combination with dexamethasone” value (Daudi cells [2]) is reported as “significantly increase”. For the same compound, the “effect of inhibitor in combination with dexamethasone in B lymphoma cells (in words)” value (Daudi cells [3]; B lymphoma cells, as shown in Table 1) was “moderate synergistic effect”, the “damage to liver cells” value [4] was “certain damage” and the liver cell activity ([4]; after 12 hours of administration) was 50.5%. For the same compound, the “recovery of liver cell activity” value [5] was “gradually recovered after 24 hours of administration”, the “apoptosis of Jurkat cells, inhibitor in combination with dexamethasone” value (Jurkat cells [6]) was “significantly increase” and the “liver pathology (HE staining)” value ([7]; 7-day administration, FIG. 8A, 8B) was “did not cause morphological changes of the liver tissues”. For the same compound, the “level of TBIL” value ([7]; compared to the NC group, FIG. 6I) was “significantly increased”, the “level of peripheral blood AST” value ([7]; compared to the normal saline group (NC), FIG. 3F, 6H) was “significantly increased” and the “level of peripheral blood ALT” value ([7]; compared to the normal saline group (NC), i.p. 7 days, FIG. 3F, 6G) was “significantly increased”.

In the case of C[C@@H]1C[C@H]2[C@@H]3CCC4=CC(=O)C=C[C@]4(C)[C@@]3(F)[C@@H](O)C[C@]2(C)[C@@]1(O)C(=O)CO [dexamethasone], the IC50 (Daudi cells [3]; Homo sapiens, Daudi, dexamethasone alone (original), read-out: concentration of dexamethasone at which 50% viability of Daudi cells (IC50 value) was inhibited) is reported as 225 µM, the IC50 (Jurkat cells [8]) is reported as 224 µM and the “damage to liver cells” value [4] is reported as “no damage to liver cells”. For the same compound, the “peripheral blood leukocyte level” value ([7]; compared to the NC group, FIG. 6J) was “no significant difference”, the “level of peripheral blood RBC” value ([7]; compared to the NC group, FIG. 6K) was “significantly increased” and the “level of peripheral blood HGB” value ([7]; compared to the NC group, FIG. 6L) was “significantly increased”. The “peripheral blood platelet level” value ([7]; compared to the NC group, FIG. 6M) was “no significant difference”, the blood glucose level ([7]; compared to the NC group, FIG. 6N) was “no significant difference” and the “peripheral blood creatinine level” value ([7]; compared to the NC group, FIG. 6O) was “no significant difference”. For the same compound, the IC50 (CCRF-CEM cells) was 0.3 µM and the IC50 (CEM-DR cells) was 138 µM.

— patent US10849906B2, “Use of Akt2 in diagnosis and treatment of tumor” (priority 2015, dated 2020)
